{"source": "patent US20230399311A1", "about": "“POLYMORPHS OF SUBSTITUTED ISOQUINOLINE-BASED RHO KINASE INHIBITORS” (BioAxone BioSciences, Inc., priority 2022, published 2023)", "key": {"[1]": {"test": "Solubility of Form A in various solvents at 25° C. and 50° C.", "assay_type": "physicochemical", "details": "thermodynamic from solid", "method": "The solubility of Form A of Compound 1 was evaluated at 25° C. and 50° C. in various solvents."}, "[2]": {"test": "pKa by iterative titration with 1M sodium hydroxide", "assay_type": "physicochemical", "details": "free base form; for pKa: Measurements #1-#3", "method": "The pKa of NRL-1049 in free base form was measured in triplicate by iterative titration with 1M sodium hydroxide solution. A plot of the pH versus the volume of the titrant was used to calculate the pKa, wherein the pKa was taken as 50% of the inflection point."}}, "note": "Values joined by “and” are separate entries in the source; they are usually repeats but may differ in a detail not shown here. Identical values can stand only once. Like-named read-outs stand apart in the source and are kept apart here."}
{"molecule": "C[C@@H](N)C1CCN(S(=O)(=O)c2cccc3cnccc23)CC1", "note": "[NRL-1049 (R), (R)-1-(1-(isoquinolin-5-ylsulfonyl)piperidin-4-yl)ethan-1-amine]", "values": [{"measurement": "solubility", "setting": "[1]; 1,4-dioxane, 25 °C, organic solvent or mixture, read-out: Solubility at 25° C.", "value": 1.5, "unit": "mg/mL"}, {"measurement": "solubility", "setting": "[1]; 1,4-dioxane, 50 °C, organic solvent or mixture, read-out: Solubility at 50° C.", "value": 11.9, "unit": "mg/mL"}, {"measurement": "solubility", "setting": "[1]; 2-methoxyethanol, 25 °C, organic solvent or mixture, read-out: Solubility at 25° C.", "value": "> 50", "unit": "mg/mL"}, {"measurement": "solubility", "setting": "[1]; 2-methoxyethanol, 50 °C, organic solvent or mixture, read-out: Solubility at 50° C.", "value": "> 50", "unit": "mg/mL"}, {"measurement": "solubility", "setting": "[1]; acetone, 25 °C, organic solvent or mixture, read-out: Solubility at 25° C.", "value": 15.9, "unit": "mg/mL"}, {"measurement": "solubility", "setting": "[1]; acetone, 50 °C, organic solvent or mixture, read-out: Solubility at 50° C.", "value": 45.3, "unit": "mg/mL"}, {"measurement": "solubility", "setting": "[1]; acetonitrile, 25 °C, organic solvent or mixture, read-out: Solubility at 25° C.", "value": "< 1", "unit": "mg/mL"}, {"measurement": "solubility", "setting": "[1]; acetonitrile, 50 °C, organic solvent or mixture, read-out: Solubility at 50° C.", "value": "< 1", "unit": "mg/mL"}, {"measurement": "solubility", "setting": "[1]; benzyl alcohol, 25 °C, organic solvent or mixture, read-out: Solubility at 25° C.", "value": 156, "unit": "mg/mL"}, {"measurement": "solubility", "setting": "[1]; chloroform, 25 °C, organic solvent or mixture, read-out: Solubility at 25° C.", "value": "> 50", "unit": "mg/mL"}, {"measurement": "solubility", "setting": "[1]; chloroform, 50 °C, organic solvent or mixture, read-out: Solubility at 50° C.", "value": "> 50", "unit": "mg/mL"}, {"measurement": "solubility", "setting": "[1]; dichloromethane, 25 °C, organic solvent or mixture, read-out: Solubility at 25° C.", "value": "< 1", "unit": "mg/mL"}, {"measurement": "solubility", "setting": "[1]; dichloromethane, 50 °C, organic solvent or mixture, read-out: Solubility at 50° C.", "value": "< 1", "unit": "mg/mL"}, {"measurement": "solubility", "setting": "[1]; dimethyl sulfoxide, 25 °C, organic solvent or mixture, read-out: Solubility at 25° C.", "value": "> 50", "unit": "mg/mL"}, {"measurement": "solubility", "setting": "[1]; dimethyl sulfoxide, 50 °C, organic solvent or mixture, read-out: Solubility at 50° C.", "value": "> 50", "unit": "mg/mL"}, {"measurement": "solubility", "setting": "[1]; dimethylformamide, 25 °C, organic solvent or mixture, read-out: Solubility at 25° C.", "value": 39.3, "unit": "mg/mL"}, {"measurement": "solubility", "setting": "[1]; dimethylformamide, 50 °C, organic solvent or mixture, read-out: Solubility at 50° C.", "value": "> 50", "unit": "mg/mL"}, {"measurement": "solubility", "setting": "[1]; ethanol, 25 °C, organic solvent or mixture, read-out: Solubility at 25° C.", "value": 12.3, "unit": "mg/mL"}, {"measurement": "solubility", "setting": "[1]; ethanol, 50 °C, organic solvent or mixture, read-out: Solubility at 50° C.", "value": 25.3, "unit": "mg/mL"}, {"measurement": "solubility", "setting": "[1]; ethyl acetate, 25 °C, organic solvent or mixture, read-out: Solubility at 25° C.", "value": "< 1", "unit": "mg/mL"}, {"measurement": "solubility", "setting": "[1]; ethyl acetate, 50 °C, organic solvent or mixture, read-out: Solubility at 50° C.", "value": "< 1", "unit": "mg/mL"}, {"measurement": "solubility", "setting": "[1]; ethyl formate, 25 °C, organic solvent or mixture, read-out: Solubility at 25° C.", "value": 13.7, "unit": "mg/mL"}, {"measurement": "solubility", "setting": "[1]; ethyl formate, 50 °C, organic solvent or mixture, read-out: Solubility at 50° C.", "value": "> 50", "unit": "mg/mL"}, {"measurement": "solubility", "setting": "[1]; iso-butyl acetate, 25 °C, organic solvent or mixture, read-out: Solubility at 25° C.", "value": "< 1", "unit": "mg/mL"}, {"measurement": "solubility", "setting": "[1]; iso-butyl acetate, 50 °C, organic solvent or mixture, read-out: Solubility at 50° C.", "value": "< 1", "unit": "mg/mL"}, {"measurement": "solubility", "setting": "[1]; iso-propanol, 25 °C, organic solvent or mixture, read-out: Solubility at 25° C.", "value": 0.5, "unit": "mg/mL"}, {"measurement": "solubility", "setting": "[1]; iso-propanol, 50 °C, organic solvent or mixture, read-out: Solubility at 50° C.", "value": 14.7, "unit": "mg/mL"}, {"measurement": "solubility", "setting": "[1]; iso-propyl acetate, 25 °C, organic solvent or mixture, read-out: Solubility at 25° C.", "value": "< 1", "unit": "mg/mL"}, {"measurement": "solubility", "setting": "[1]; iso-propyl acetate, 50 °C, organic solvent or mixture, read-out: Solubility at 50° C.", "value": "< 1", "unit": "mg/mL"}, {"measurement": "solubility", "setting": "[1]; medium chain triglyceride, 25 °C, oil or lipid, read-out: Solubility at 25° C.", "value": 0.1, "unit": "mg/mL"}, {"measurement": "solubility", "setting": "[1]; methanol, 25 °C, organic solvent or mixture, read-out: Solubility at 25° C.", "value": "> 50", "unit": "mg/mL"}, {"measurement": "solubility", "setting": "[1]; methanol, 50 °C, organic solvent or mixture, read-out: Solubility at 50° C.", "value": "> 50", "unit": "mg/mL"}, {"measurement": "solubility", "setting": "[1]; methyl ethyl ketone, 25 °C, organic solvent or mixture, read-out: Solubility at 25° C.", "value": "< 1", "unit": "mg/mL"}, {"measurement": "solubility", "setting": "[1]; methyl ethyl ketone, 50 °C, organic solvent or mixture, read-out: Solubility at 50° C.", "value": 1.5, "unit": "mg/mL"}, {"measurement": "solubility", "setting": "[1]; methyl iso-butyl ketone, 25 °C, organic solvent or mixture, read-out: Solubility at 25° C.", "value": "< 1", "unit": "mg/mL"}, {"measurement": "solubility", "setting": "[1]; methyl iso-butyl ketone, 50 °C, organic solvent or mixture, read-out: Solubility at 50° C.", "value": "< 1", "unit": "mg/mL"}, {"measurement": "solubility", "setting": "[1]; n-butyl alcohol, 25 °C, organic solvent or mixture, read-out: Solubility at 25° C.", "value": 1.6, "unit": "mg/mL"}, {"measurement": "solubility", "setting": "[1]; n-butyl alcohol, 50 °C, organic solvent or mixture, read-out: Solubility at 50° C.", "value": 7.5, "unit": "mg/mL"}, {"measurement": "solubility", "setting": "[1]; n-propanol, 25 °C, organic solvent or mixture, read-out: Solubility at 25° C.", "value": 1.6, "unit": "mg/mL"}, {"measurement": "solubility", "setting": "[1]; n-propanol, 50 °C, organic solvent or mixture, read-out: Solubility at 50° C.", "value": 23.4, "unit": "mg/mL"}, {"measurement": "solubility", "setting": "[1]; o-xylene, 25 °C, organic solvent or mixture, read-out: Solubility at 25° C.", "value": "< 1", "unit": "mg/mL"}, {"measurement": "solubility", "setting": "[1]; o-xylene, 50 °C, organic solvent or mixture, read-out: Solubility at 50° C.", "value": "< 1", "unit": "mg/mL"}, {"measurement": "solubility", "setting": "[1]; polyethylene glycol 300, 25 °C, organic solvent or mixture, read-out: Solubility at 25° C.", "value": 11, "unit": "mg/mL"}, {"measurement": "solubility", "setting": "[1]; propylene glycol, 25 °C, organic solvent or mixture, read-out: Solubility at 25° C.", "value": 84, "unit": "mg/mL"}, {"measurement": "solubility", "setting": "[1]; sesame oil, 25 °C, oil or lipid, read-out: Solubility at 25° C.", "value": 0.04, "unit": "mg/mL"}, {"measurement": "solubility", "setting": "[1]; tert-butyl methyl ether, 25 °C, organic solvent or mixture, read-out: Solubility at 25° C.", "value": "< 1", "unit": "mg/mL"}, {"measurement": "solubility", "setting": "[1]; tert-butyl methyl ether, 50 °C, organic solvent or mixture, read-out: Solubility at 50° C.", "value": "< 1", "unit": "mg/mL"}, {"measurement": "solubility", "setting": "[1]; tetrahydrofuran, 25 °C, organic solvent or mixture, read-out: Solubility at 25° C.", "value": 1.6, "unit": "mg/mL"}, {"measurement": "solubility", "setting": "[1]; tetrahydrofuran, 50 °C, organic solvent or mixture, read-out: Solubility at 50° C.", "value": 2, "unit": "mg/mL"}, {"measurement": "solubility", "setting": "[1]; toluene, 25 °C, organic solvent or mixture, read-out: Solubility at 25° C.", "value": "< 1", "unit": "mg/mL"}, {"measurement": "solubility", "setting": "[1]; toluene, 50 °C, organic solvent or mixture, read-out: Solubility at 50° C.", "value": "< 1", "unit": "mg/mL"}, {"measurement": "solubility", "setting": "[1]; water, 25 °C, water, read-out: Solubility at 25° C.", "value": "> 50", "unit": "mg/mL"}, {"measurement": "solubility", "setting": "[1]; water, 50 °C, water, read-out: Solubility at 50° C.", "value": "> 50", "unit": "mg/mL"}]}
{"molecule": "CC(N)C1CCN(S(=O)(=O)c2cccc3cnccc23)CC1", "note": "(stereo not shown) [NRL-1049]", "values": [{"measurement": "pKa average", "setting": "[2]; Sample 1", "value": 1.8}, {"measurement": "pKa", "setting": "[2]; Sample 1", "value": "1.73 and 1.81 and 1.83"}, {"measurement": "pKa average", "setting": "[2]; Sample 2", "value": 2.0}, {"measurement": "pKa average", "setting": "[2]; Sample 3", "value": 1.9}, {"measurement": "pKa", "setting": "[2]; Sample 3", "value": "1.89 and 1.87 and 1.98"}]}
